Data: ChEMBL document CHEMBL1152981 (J Med Chem, 2009)
Active and inactive are the calls of the source. The calls are words filed in the database; no cut-off is given here.

Tests used:
[1] = biological target: Glutamate NMDA receptor; assay: Displacement of [3H]glycine from strychnine-insensitive glycine recognition site of NMDA receptor in rat brain cortex membrane; type: cell membranes
[2] = Partial agonist activity at glycine site of NMDA receptor in rat brain cortex membrane assessed as potentiation of [3H]Mk-801 binding by liquid scintillation counting; type: cell membranes
[3] = biological target: T1, Glutamate NMDA receptor (Rattus norvegicus) (UniProt P35439+Q00959+Q00960+Q00961+Q62645+Q8VHN2+Q9R1M7); assay: Displacement of [3H]spermidine from polyamine site of NMDA receptor in rat brain cortex membrane; type: cell membranes
[4] = biological target: Glutamate NMDA receptor; assay: Displacement of [3H]CGP39653 from glutamate recognition site of NMDA receptor in rat brain cortex membrane in presence of glycine antagonist 5,7-dichlorokynurenic acid; type: cell membranes
[5] = biological target: T1, Glutamate NMDA receptor (Rattus norvegicus); assay: Displacement of [3H]MK-801 from ion channel site of NMDA receptor in rat brain cortex membrane; type: cell membranes
[6] = biological target: T1, Glutamate NMDA receptor (Rattus norvegicus); assay: Displacement of [3H]glycine from strychnine-insensitive glycine recognition site of NMDA receptor in rat brain cortex membrane at 3 uM; type: cell membranes
[7] = biological target: T1, Glutamate NMDA receptor (Rattus norvegicus); assay: Antagonist activity at glycine site of NMDA receptor in rat brain cortex membrane assessed as inhibition of [3H]Mk-801 binding by liquid scintillation counting in presence of antagonist 5,7-dichlorokynurenic acid

SMILES | pKi [1] | pKi [4] | other results
CC(N)(CO)C(=O)O (stereo not given) | < 4 |  | 
CCCCCC/C=C/[C@H](N)C(=O)O | 5.9 |  | 
CC[C@@H](N)C(=O)O | < 4 |  | 
N[C@@H](/C=C/CCO)C(=O)O | 6.6 |  | 
C=CC[C@@H](N)C(=O)O | < 4 |  | 
NC(C(=O)O)C1CC1 (stereo not given) | < 4 |  | 
NC1(C(=O)O)CCCCC1 | < 3 |  | 
CCc1ccccc1-c1cccc2[nH]c(C(=O)NC[C@@H](N)C(=O)O)cc12 | 7.6 | 5.4 | pEC50 [2]: 7.7; Activity [3]: inactive; Activity [5]: inactive
N[C@H](CNC(=O)c1cc2ccccc2[nH]1)C(=O)O | 5.3 | 3.8 | pEC50 [2]: 5.3; Activity [3]: inactive; Activity [5]: inactive
N[C@@H](CNC(=O)c1cc2ccccc2[nH]1)C(=O)O | < 4 |  | 
CCC/C=C/[C@H](N)C(=O)O | 5.4 |  | 
N[C@H](CNC(=O)c1cc2c(Br)cccc2[nH]1)C(=O)O | 7 | 4.6 | pEC50 [2]: 6.6; Activity [3]: inactive; Activity [5]: inactive
CC(O)[C@@H](N)C(=O)O (stereo not given in full) |  |  | Activity [6]: inactive
COC[C@@H](N)C(=O)O |  |  | Activity [6]: inactive
CCNC(=O)NCC(N)C(=O)O (racemic) | < 4 |  | 
NC(CNC(=O)c1ccco1)C(=O)O (racemic) | 4.9 |  | pEC50 [2]: 5.1; Activity [3]: inactive; Activity [5]: inactive
COC(=O)NCC(N)C(=O)O (racemic) | 4.1 |  | 
N#Cc1cccc2sc(C(=O)NCC(N)C(=O)O)cc12 (racemic) | 5.9 | < 4 | pA2 [2]: 5.5; Activity [3]: inactive; Activity [5]: inactive
NC(CNC(=O)c1cc2c(-c3ccc(Cl)cc3Cl)cccc2s1)C(=O)O (racemic) | 4.7 | < 4.5 | pA2 [2]: 5.1; Activity [3]: inactive; Activity [5]: inactive
NC(CNC(=O)c1cc2ccc(Cl)cc2[nH]1)C(=O)O (racemic) | 4.9 |  | 
NC(CNC(=O)c1cc2cccc(Cl)c2[nH]1)C(=O)O (racemic) | 5.5 |  | 
NC(CNC(=O)c1c[nH]c2ccccc12)C(=O)O (racemic) | 5.4 |  | Activity [3]: inactive; Activity [5]: inactive

SMILES | pKi [1] | pKi [4] | other results
NC(CNC(=O)c1cc2c(Cl)cccc2s1)C(=O)O (racemic) | 6.5 | < 4 | 
COc1cccc2[nH]c(C(=O)NCC(N)C(=O)O)cc12 (racemic) | 5.9 | 4.1 | 
CCCc1c(C(=O)NCC(N)C(=O)O)[nH]c2cccc(-c3ccccc3CC)c12 (racemic) | 6.8 | 5.3 | 
CCCc1ccccc1-c1cccc2[nH]c(C(=O)NCC(N)C(=O)O)cc12 (racemic) | 7.3 | 5.4 | pEC50 [2]: 7.6
NC(CNC(=O)c1cc2cc(Cl)ccc2[nH]1)C(=O)O (racemic) | 4.7 |  | 
NC(CNC(=O)c1cc2c(Cl)ccc(Cl)c2[nH]1)C(=O)O (racemic) | 6.8 | 4 | pA2 [2]: 6.2
CCc1ccccc1-c1cccc2sc(C(=O)NCC(N)C(=O)O)cc12 (racemic) | 6.2 | 3.9 | Activity [3]: inactive; Activity [5]: inactive
NC(CNC(=O)c1cc2c(Br)cccc2[nH]1)C(=O)O (racemic) | 6.8 | 4.7 | 
Cn1c(C(=O)NCC(N)C(=O)O)cc2ccccc21 (racemic) | 4.9 |  | 
NC(CNC(=O)C1=Cc2ccccc2C1)C(=O)O (racemic) | 5.5 | < 4 | 
NC(CNC(=O)Cc1c[nH]c2ccccc12)C(=O)O (racemic) | < 4 |  | 
NC(CNC(=O)c1ccc2ccccc2c1)C(=O)O (racemic) | 5.9 | < 4 | Activity [3]: inactive; Activity [5]: inactive
NC(CNC(=O)c1cc2c(-c3ccccc3)cccc2[nH]1)C(=O)O (racemic) | 5.6 | 4.7 | 
Cn1c(C(=O)NCC(N)C(=O)O)cc2c(Br)cccc21 (racemic) | 5 |  | 
NC(CNC(=O)C1Cc2ccccc2C1)C(=O)O (racemic) | < 4 |  | 
NC(CNC(=O)c1cc2c(Br)cccc2s1)C(=O)O (racemic) | 6.4 | < 4 | Activity [3]: inactive; Activity [5]: inactive
NC(CNC(=O)c1ccc[nH]1)C(=O)O (racemic) | 4.9 |  | pEC50 [2]: 5; Activity [3]: inactive; Activity [5]: inactive
NC(CNC(=O)Cc1c[nH]c2cccc(Br)c12)C(=O)O (racemic) | 4.3 | < 4 | 
CCc1ccccc1-c1cccc2cc(C(=O)NCC(N)C(=O)O)ccc12 (racemic) | 5.7 | 4.5 | 
NC(CNC(=O)c1cc2c(Cl)cccc2[nH]1)C(=O)O (racemic) | 6 | 4.1 | 
Cc1ccccc1-c1cccc2[nH]c(C(=O)NCC(N)C(=O)O)cc12 (racemic) | 6.5 | 5.2 | pEC50 [2]: 6.9
COc1ccccc1-c1cccc2[nH]c(C(=O)NCC(N)C(=O)O)cc12 (racemic) | 5.6 | 4.3 | 

SMILES | pKi [1] | pKi [4] | other results
CCc1ccccc1-c1ccc(Cl)c2[nH]c(C(=O)NCC(N)C(=O)O)cc12 (racemic) | 6.9 | < 4.5 | 
NC(CNC(=O)c1cc2ccccc2o1)C(=O)O (racemic) | 5.2 | < 4 | 
NC(CNC(=O)c1ccc2c(Br)cccc2c1)C(=O)O (racemic) | 6.6 | 4.3 | 
CC(C)c1ccccc1-c1cccc2[nH]c(C(=O)NCC(N)C(=O)O)cc12 (racemic) | 7.3 | 5.6 | 
CN(C)c1ccccc1-c1cccc2[nH]c(C(=O)NCC(N)C(=O)O)cc12 (racemic) | 5.8 | 4.1 | pEC50 [2]: 6.5
NC(CNC(=O)c1ccccn1)C(=O)O (racemic) | 4.4 |  | 
NC(CNC(=O)c1cccc2ccccc12)C(=O)O (racemic) | 5.9 | < 4 | 
CCCc1c(C(=O)NCC(N)C(=O)O)[nH]c2ccccc12 (racemic) | 6.3 | 3.8 | pA2 [2]: 5.7; Activity [3]: inactive; Activity [5]: inactive
CCc1ccccc1-c1cccc2c1cc(C(=O)NCC(N)C(=O)O)n2C (racemic) | 3.9 |  | 
Cc1c(C(=O)NCC(N)C(=O)O)[nH]c2ccccc12 (racemic) | 5.5 |  | 
CCCc1c(C(=O)NCC(N)C(=O)O)[nH]c2cccc(Br)c12 (racemic) | 6.5 | 4.2 | pA2 [2]: 6
NC(CNC(=O)c1ccc2ccccc2n1)C(=O)O (racemic) | 5.6 | < 4 | 
CCc1ccccc1-c1cccc2[nH]c(C(=O)NCC(N)C(=O)O)cc12 (racemic) | 7.5 | 4.9 | 
NC(CNC(=O)c1cc2c(-c3ccccc3Cc3ccccc3)cccc2[nH]1)C(=O)O (racemic) | 6 | < 5.5 | pEC50 [2]: 6.5
NC(CNC(=O)c1[nH]c2cccc(Br)c2c1[N+](=O)[O-])C(=O)O (racemic) | 6.1 | 4.9 | 
C[C@@H]1CN(O)C(=O)[C@@H]1N (relative stereo) |  |  | Activity [7]: Active
NC1(C(=O)O)CCC1 [1-AMINOCYCLOBUTANE CARBOXYLIC ACID] | 4.8 |  | 
NC1(C(=O)O)CC1 [1-Aminocyclopropane carboxylic acid] | 6.8 |  | 
NC1(C(=O)O)CCCC1 [CYCLOLEUCINE] | 2.7 |  | 
C[C@@H](N)C(=O)O [D-ALANINE] | 6.2 |  | 
